Values quoted from earlier work as cited in patent US10759750B2, “Beta lactams as modulators of glutamate uptake and methods for use thereof” (Temple University—Of The Commonwealth System of Higher …, priority 2016, dated 2020).
Read-outs that look alike come from different tables or passages of the source.

Assays:
[1] = test system: amyotrophic lateral sclerosis (ALS); settings: ALS patients; 50 mg of Riluzole daily and palliative drugs; after 15 months of treatment

Row | free, unbound cerebrospinal fluid/plasma ratio (based on AUCs (Lutsar and Friedland, 2000)) | free, unbound cerebrospinal fluid/plasma ratio (based on Cmax (Chadwick et al., 1983)) | SMILES | increase in life expectancy [1]
1 |  |  | Nc1nc2ccc(OC(F)(F)F)cc2s1 [Riluzole] | 2-3 months
2 | 1% | 2-13% | CO/N=C(\C(=O)N[C@@H]1C(=O)N2C(C(=O)O)=C(CSc3nc(=O)c(=O)[nH]n3C)CS[C@H]12)c1csc(N)n1 [ceftriaxone] | 
